In patent US20210355104A1, “ADENOSINE RECEPTOR BINDING COMPOUNDS” (Nikang Therapeuticsm Inc., priority 2018, published 2021):
Values joined by “and” are separate entries in the source; they are usually repeats but may differ in a detail not shown here. Equal values may be shown once.

The compounds below were run against Adenosine A2A receptor (Homo sapiens, UniProt P29274) (assay: cAMP assay in 293A cells stably expressing the adenosine A2A receptor (CGS21680 stimulation, HTRF)). Settings: 293A cells stably expressing A2A receptor; 0.1% BSA; 1 uM CGS21680 stimulation; replicate values separated by /; read-out: cAMP (nM) 0.1% BSA, 1 uM CGS.
Adenosine A2A receptor, sequence (P29274 whole entry): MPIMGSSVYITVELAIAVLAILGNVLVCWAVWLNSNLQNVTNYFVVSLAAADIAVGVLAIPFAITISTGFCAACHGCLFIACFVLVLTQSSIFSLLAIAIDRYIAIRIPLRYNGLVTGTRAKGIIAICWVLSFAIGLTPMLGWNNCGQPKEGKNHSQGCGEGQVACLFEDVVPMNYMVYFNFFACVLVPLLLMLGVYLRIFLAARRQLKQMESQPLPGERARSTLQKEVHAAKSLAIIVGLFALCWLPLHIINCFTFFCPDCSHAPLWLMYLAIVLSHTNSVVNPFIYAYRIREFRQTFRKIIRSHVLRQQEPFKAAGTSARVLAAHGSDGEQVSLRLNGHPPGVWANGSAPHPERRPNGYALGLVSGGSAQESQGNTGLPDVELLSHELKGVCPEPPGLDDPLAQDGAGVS
Assay type: cell-based
Set-up: expressed in transfected cells; host or cells: 293A cells (Invitrogen, Cat# R705-07) infected with A2A-expressing lentivirus (custom packaged by Biosettia), puromycin selected

Structure (SMILES)	IC50
Cc1cc(-c2c(OCc3cc(-c4nnnn4C)cc(C(C)(C)O)n3)nc(N)nc2-c2ccc(F)cc2)cc(C(F)F)n1 [Example 443, 2-(6-(((2-amino-5-(2-(difluoromethyl)-6-methylpyridin-4-yl)-6-(4-fluorophenyl)pyrimidin-4-yl)oxy)methyl)-4-(1-methyl-1H-tetrazol-5-yl)pyridin-2-yl)propan-2-ol]	23200 nM
Cc1cc(-c2c(COc3cccc(C(C)C)n3)nc(N)nc2-c2ccc(F)cc2)cc(C(F)F)n1 [Example 397, 5-(2-(difluoromethyl)-6-methylpyridin-4-yl)-4-(4-fluorophenyl)-6-(((6-isopropylpyridin-2-yl)oxy)methyl)pyrimidin-2-amine]	9.4 nM and 32 nM and 26 nM and 17 nM
Cc1cc(-c2c(OCc3cccc(CNS(C)(=O)=O)n3)nc(N)nc2-c2ccc(F)cc2)cc(C(F)F)n1 [Example 409, N-((6-(((2-amino-5-(2-(difluoromethyl)-6-methylpyridin-4-yl)-6-(4-fluorophenyl)pyrimidin-4-yl)oxy)methyl)pyridin-2-yl)methyl) methanesulfonamide]	977 nM and 822 nM
Cc1cc(-c2c(OCc3nccc4nn(C)cc34)nc(N)nc2-c2ccc(F)cc2)cc(C(F)F)n1 [Example 430, 5-(2-(difluoromethyl)-6-methylpyridin-4-yl)-4-(4-fluorophenyl)-6-((2-methyl-2H-pyrazolo[4,3-c]pyridin-4-yl)methoxy)pyrimidin-2-amine]	2460 nM
Cc1cc(-c2c(OCc3nc(C(C)(C)O)cc4ccccc34)nc(N)nc2-c2ccc(F)cc2)cc(C(F)F)n1 [Example 404, 2-(1-(((2-amino-5-(2-(difluoromethyl)-6-methylpyridin-4-yl)-6-(4-fluorophenyl)pyrimidin-4-yl)oxy)methyl)isoquinolin-3-yl)propan-2-ol]	1370 nM and 1800 nM
Cc1cc(-c2c(OCc3cc(C(C)(C)O)cc(C(C)(C)O)n3)nc(N)nc2-c2ccc(F)cc2)cc(C(F)F)n1 [Example 421, 2,2′-(6-(((2-amino-5-(2-(difluoromethyl)-6-methylpyridin-4-yl)-6-(4-fluorophenyl)pyrimidin-4-yl)oxy)methyl)pyridine-2,4-diyl)bis(propan-2-ol)]	3420 nM

Same assay, conditions: 293A-A2AR cells, 0.1% BSA, 1 uM CGS; read-out: cAMP (nM) 0.1% BSA, 1 uM CGS

Structure (SMILES)	IC50
Cc1cc(-c2c(OCc3ccn(C)c(=O)c3)nc(N)nc2-c2ccc(F)cc2)cc(C(F)F)n1 [Example 280, 4-(((2-amino-5-(2-(difluoromethyl)-6-methylpyridin-4-yl)-6-(4-fluorophenyl)pyrimidin-4-yl)oxy)methyl)-1-methylpyridin-2(1H)-one]	5800 nM
CCc1c(COc2nc(N)nc(-c3ccc(F)cc3)c2-c2cc(C)nc(C(F)F)c2)nnn1CC(C)(C)C(=O)O [Example 302, 3-(4-(((2-amino-5-(2-(difluoromethyl)-6-methylpyridin-4-yl)-6-(4-fluorophenyl)pyrimidin-4-yl)oxy)methyl)-5-ethyl-1H-1,2,3-triazol-1-yl)-2,2-dimethylpropanoic acid]	> 10000 nM
CCn1nnc(COc2nc(N)nc(-c3cccc(C#N)c3C)c2-c2cc(C)nc(C(F)F)c2)n1 [Example 237, 3-(2-amino-5-(2-(difluoromethyl)-6-methylpyridin-4-yl)-6-((2-ethyl-2H-tetrazol-5-yl)methoxy)pyrimidin-4-yl)-2-methylbenzonitrile]	2120 nM
Cc1cc(-c2c(OCc3cccc(C(C)(C)OCC(=O)O)n3)nc(N)nc2-c2ccc(F)cc2)cc(C(F)F)n1 [Example 296, 2-((2-(6-(((2-amino-5-(2-(difluoromethyl)-6-methylpyridin-4-yl)-6-(4-fluorophenyl)pyrimidin-4-yl)oxy)methyl)pyridin-2-yl)propan-2-yl)oxy)acetic acid]	3630 nM
CCc1nnn(C[C@H](O)CO)c1COc1nc(N)nc(-c2ccc(F)cc2)c1-c1cc(C)nc(C(F)F)c1 [Example 318, (S)-3-(5-(((2-amino-5-(2-(difluoromethyl)-6-methylpyridin-4-yl)-6-(4-fluorophenyl)pyrimidin-4-yl)oxy)methyl)-4-ethyl-1H-1,2,3-triazol-1-yl)propane-1,2-diol]	1350 nM
Cc1cc(-c2c(OCc3nc4nc(C(C)(C)C(=O)O)ccc4n3C)nc(N)nc2-c2ccc(F)cc2)cc(C(F)F)n1 [Example 374, 2-(2-(((2-amino-5-(2-(difluoromethyl)-6-methylpyridin-4-yl)-6-(4-fluorophenyl)pyrimidin-4-yl)oxy)methyl)-1-methyl-1H-imidazo[4,5-b]pyridin-5-yl)-2-methylpropanoic acid]	> 25000 nM
Cc1cc(-c2c(OCc3ccncn3)nc(N)nc2-c2cccc(C#N)c2C)cc(C(F)F)n1 [Example 240, 3-(2-amino-5-(2-(difluoromethyl)-6-methylpyridin-4-yl)-6-(pyrimidin-4-ylmethoxy)pyrimidin-4-yl)-2-methylbenzonitrile]	17000 nM
Cc1cc(-c2c(OCc3cccc(C4(C#N)CCOCC4)n3)nc(N)nc2-c2ccc(F)cc2)cc(C(F)F)n1 [Example 275, 4-(6-(((2-amino-5-(2-(difluoromethyl)-6-methylpyridin-4-yl)-6-(4-fluorophenyl)pyrimidin-4-yl)oxy)methyl)pyridin-2-yl)tetrahydro-2H-pyran-4-carbonitrile]	321 nM
CCc1nn(CC(C)(C)O)nc1COc1nc(N)nc(-c2ccc(F)cc2)c1-c1cc(C)nc(C(F)F)c1 [Example 251, 1-(4-(((2-amino-5-(2-(difluoromethyl)-6-methylpyridin-4-yl)-6-(4-fluorophenyl)pyrimidin-4-yl)oxy)methyl)-5-ethyl-2H-1,2,3-triazol-2-yl)-2-methylpropan-2-ol]	1280 nM
CCn1ccc(COc2nc(N)nc(-c3cccc(C#N)c3C)c2-c2cc(C)nc(C(F)F)c2)n1 [Example 244, 3-(2-amino-5-(2-(difluoromethyl)-6-methylpyridin-4-yl)-6-((1-ethyl-1H-pyrazol-3-yl)methoxy)pyrimidin-4-yl)-2-methylbenzonitrile]	756 nM
CCc1nn(C[C@@H](O)CO)nc1COc1nc(N)nc(-c2ccc(F)cc2)c1-c1cc(C)nc(C(F)F)c1 [Example 288, (R)-3-(4-(((2-amino-5-(2-(difluoromethyl)-6-methylpyridin-4-yl)-6-(4-fluorophenyl)pyrimidin-4-yl)oxy)methyl)-5-ethyl-2H-1,2,3-triazol-2-yl)propane-1,2-diol]	2390 nM
Cc1cc(-c2c(OCc3cccc(C#CC(C)(C)C(=O)O)n3)nc(N)nc2-c2ccc(F)cc2)cc(C(F)F)n1 [Example 384, 4-(6-(((2-amino-5-(2-(difluoromethyl)-6-methylpyridin-4-yl)-6-(4-fluorophenyl)pyrimidin-4-yl)oxy)methyl)pyridin-2-yl)-2,2-dimethylbut-3-ynoic acid]	15400 nM
Cc1cc(-c2c(OCc3cccc(C(C)(C)C(=O)O)c3F)nc(N)nc2-c2ccc(F)cc2)cc(C(F)F)n1 [Example 370, 2-(3-(((2-amino-5-(2-(difluoromethyl)-6-methylpyridin-4-yl)-6-(4-fluorophenyl)pyrimidin-4-yl)oxy)methyl)-2-fluorophenyl)-2-methylpropanoic acid]	5430 nM
Cc1cc(-c2c(OCCc3cccnc3)nc(N)nc2-c2ccc(F)cc2)cc(C(F)F)n1 [Example 299, 5-(2-(difluoromethyl)-6-methylpyridin-4-yl)-4-(4-fluorophenyl)-6-(2-(pyridin-3-yl)ethoxy)pyrimidin-2-amine]	1110 nM
Cc1cc(-c2c(OCc3cccc(N4CCCC4)n3)nc(N)nc2-c2ccc(F)cc2)cc(C(F)F)n1 [Example 283, 5-(2-(difluoromethyl)-6-methylpyridin-4-yl)-4-(4-fluorophenyl)-6-((6-(pyrrolidin-1-yl)pyridin-2-yl)methoxy)pyrimidin-2-amine]	1170 nM
CCn1nccc1COc1nc(N)nc(-c2cccc(C#N)c2C)c1-c1cc(C)nc(C(F)F)c1 [Example 243, 3-(2-amino-5-(2-(difluoromethyl)-6-methylpyridin-4-yl)-6-((1-ethyl-1H-pyrazol-5-yl)methoxy)pyrimidin-4-yl)-2-methylbenzonitrile]	2950 nM
CCc1nnn(CC(C)(C)O)c1COc1nc(N)nc(-c2ccc(F)cc2)c1-c1cc(C)nc(C(F)F)c1 [Example 253, 1-(5-(((2-amino-5-(2-(difluoromethyl)-6-methylpyridin-4-yl)-6-(4-fluorophenyl)pyrimidin-4-yl)oxy)methyl)-4-ethyl-1H-1,2,3-triazol-1-yl)-2-methylpropan-2-ol]	2150 nM
Cc1cc(-c2c(OCc3nncn3CC3CC3)nc(N)nc2-c2ccc(F)cc2)cc(C(F)F)n1 [Example 234]	647 nM
Cc1cc(-c2c(OCc3ccc(C)c(C(C)(C)C(=O)O)n3)nc(N)nc2-c2ccc(F)cc2)cc(C(F)F)n1 [Example 377, 2-(6-(((2-amino-5-(2-(difluoromethyl)-6-methylpyridin-4-yl)-6-(4-fluorophenyl)pyrimidin-4-yl)oxy)methyl)-3-methylpyridin-2-yl)-2-methylpropanoic acid]	21100 nM
Cc1cc(-c2c(OCc3nc4c(C(C)(C)C(=O)O)cccc4n3C)nc(N)nc2-c2ccc(F)cc2)cc(C(F)F)n1 [Example 359, 2-(2-(((2-amino-5-(2-(difluoromethyl)-6-methylpyridin-4-yl)-6-(4-fluorophenyl)pyrimidin-4-yl)oxy)methyl)-1-methyl-1H-benzo[d]imidazol-4-yl)-2-methylpropanoic acid]	9470 nM and 8890 nM
Cc1cc(-c2c(OCc3nnn[nH]3)nc(N)nc2-c2ccc(F)cc2)cc(C(F)F)n1 [Example 269, 4-((1H-tetrazol-5-yl)methoxy)-5-(2-(difluoromethyl)-6-methylpyridin-4-yl)-6-(4-fluorophenyl)pyrimidin-2-amine]	> 25000 nM
Cc1cc(-c2c(OCc3nccn3CC(C)(C)O)nc(N)nc2-c2cccc(C#N)c2C)cc(C(F)F)n1 [Example 236, 3-(2-amino-5-(2-(difluoromethyl)-6-methylpyridin-4-yl)-6-((1-(2-hydroxy-2-methylpropyl)-1H-imidazol-2-yl)methoxy)pyrimidin-4-yl)-2-methylbenzonitrile]	> 25000 nM
